Data reported in US10660882B2, “Prophylactic or therapeutic agent for giant cell tumors occurring in bone and soft tissue or for chondrosarcoma” (NIPPON CHEMIPHAR CO., LTD., priority 2012, dated 2020).

How the values were obtained:
[1] = test system: GCT cultured cells; assay: Cell proliferation of GCT cultured cells, Cell Counting Kit-8, absorbance at 450 nm; assay type: cell-based, human; details: GCT cultured cells case 1, case 2
Experimental: (§1) GCT cultured cells (case 1, patient with osteoclastoma in a distal part of the right femur; case 2, patient with osteoclastoma in a distal part of the right femur) were cultured on a 96-well culture plate, zaltoprofen was added to the cells at various concentrations (5, 10, 50, 100, and 200 μM), color development was attained with Cell Counting Kit-8 (CCK-8) (Dojindo) 24 hours thereafter, and absorbance was measured at 450 nm 3 hours thereafter (FIG. 1).
In the same manner as that of Example 1, the GOT cultured cells (case 1, case 2) were cultured, a non-steroidal anti-inflammatory agent (acetaminophen, indomethacin, or diclofenac) or troglitazone was added at various concentrations, and absorbance was measured at 450 nm (FIGS. 12 and 13).
(§2) In the same manner as that of Example 1, the GCT cultured cells (case 1, case 2), the cells derived from giant cell tumor of tendon sheath (GCT of tendon sheath), or the cells derived from pigmented villonodular synovitis (diffuse-type GCT) were cultured, and then pioglitazone, a thiazolidine derivative, was added at various concentrations, and absorbance was measured at 450 nm (FIG. 32).

[2] = test system: caspase 3; assay: Caspase 3 staining of cultured cells of giant cell tumor of tendon sheath; assay type: cell-based, human; details: 400 μM, compared with control
Experimental: (§3) Further, the aforementioned GCT cultured cells of the case 1 were cultured on chamber cover slide glass, and zaltoprofen was added at different concentrations (100, and 200 μM) 24 hours afterward. Then, 8 hours and 24 hours afterward, the cells were fixed with 4% paraformaldehyde, staining with caspase 3 and Tunel assay were performed, and presence or absence of apoptosis was analyzed. Observation was performed with a fluorescence microscope (BZ-9000) of Keyence, and positive images for each concentration were quantitatively observed (FIGS. 2 to 5). […] Further, in the same manner as that of Example 1, the cultured cells of giant cell tumor of tendon sheath and the cultured cells of pigmented villonodular synovitis were subjected to staining with caspase 3 and Tunel assay, and presence or absence of apoptosis was analyzed (FIGS. 18 to 25). As a result, it was observed that the Tunel-positive ratio and caspase 3-positive ratio increased in the cells added with zaltoprofen at a concentration of 400 μM or troglitazone at a concentration of 2000 μM compared with those observed for the control.

[3] = test system: cells derived from giant cell tumor of tendon sheath; assay: Fat cell differentiation of cells derived from giant cell tumor of tendon sheath, lipid stain; assay type: cell-based, human; details: 400 μM, compared with control
Experimental: (§4) It has been reported that PPARγ is a transcription factor indispensable for fat cell differentiation. Therefore, the GCT cultured cells of the aforementioned case 1 were cultured on chamber cover slide glass, and when they reached confluent, zaltoprofen was added to the cells at various concentrations (10, 50, and 100 μM). From 24 hours thereafter, the cells were cultured in a fat cell differentiation-inducing medium (STREMPRO Adipogenesis Differentiation Kit, Invitrogen) for 7 to 14 days, and differentiation into fat cells was analyzed with HCS LipidTOX Green Neutral Lipid Stain (Invitrogen) (FIGS. 8 and 9).
(§5) As described in Example 3, it has been reported that PPARγ is a transcription factor indispensable for fat cell differentiation. Therefore, zaltoprofen was added at a concentration of 400 μM to the cells derived from giant cell tumor of tendon sheath or the cells derived from pigmented villonodular synovitis, and differentiation into fat cells was analyzed (FIGS. 30 and 31). As a result, it was successfully observed that the positive images obtained with HCS LipidTOX Green Neutral Lipid Stain increased in the zaltoprofen-added cells compared with the control.

[4] = test system: PPARγ; assay: PPARγ immunostaining of cells derived from giant cell tumor of tendon sheath; assay type: cell-based, human; details: 400 μM
[5] = test system: osteoclastoma (GCT); assay: Fat cell differentiation in operational excision sample of GCT patient administered with zaltoprofen; assay type: in vivo, human; details: 3 tablets per day (80 mg) for about 28 days
Experimental: (§6) An operational excision sample of a person who had been administered with 3 tablets per day of the zaltoprofen tablets, Soleton Tablet 80 (generic name: zaltoprofen, 80 mg, Nippon Chemiphar) for about 28 days for pain due to the tumor, and then subjected to the operation, and an operational excision sample of a patient with osteoclastoma not administered with zaltoprofen as a control were subjected to staining of PPARγ, and expression of PPARγ was analyzed. Observation was performed with a fluorescence microscope (BZ-9000) of Keyence (FIG. 11).

[6] = test system: cultured cells of giant cell tumor of tendon sheath; assay: Tunel assay of cultured cells of giant cell tumor of tendon sheath; assay type: cell-based, human; details: 400 μM, compared with control
Experimental: as §3

[7] = test system: osteoclastoma; assay: MRI evaluation of patient with recurrence of osteoclastoma in the pelvic part administered with zaltoprofen; assay type: in vivo, human
Experimental: (§7) Soleton Tablet 80 (generic name: zaltoprofen, 80 mg, Nippon Chemiphar) was administered to a patient with osteoclastoma, a patient with giant cell tumor of tendon sheath, or a patient with pigmented villonodular synovitis at a dose of 3 tablets per day (administered in morning, at noon, and in evening), and the tumor size was evaluated by MRI every several months.

[8] = test system: cultured cells of giant cell tumor of tendon sheath; assay: Cell proliferation of cultured cells of giant cell tumor of tendon sheath, CCK-8; assay type: cell-based, human; details: various concentrations
Experimental: as §1, §2

[9] = test system: cells derived from pigmented villonodular synovitis; assay: Fat cell differentiation of cells derived from pigmented villonodular synovitis, lipid stain; assay type: cell-based, human; details: 400 μM, compared with control
Experimental: as §4, §5

[10] = test system: cultured cells of pigmented villonodular synovitis; assay: Cell proliferation of cultured cells of pigmented villonodular synovitis, CCK-8; assay type: cell-based, human; details: various concentrations
Experimental: as §1, §2

[11] = test system: caspase 3; assay: Caspase 3 staining of chondrosarcoma-derived cell line; assay type: cell-based; details: 200 μM zaltoprofen, compared with control
Experimental: (§8) Further, the aforementioned GCT cultured cells of the case 1 were cultured on chamber cover slide glass, and zaltoprofen was added at different concentrations (100, and 200 μM) 24 hours afterward. Then, 8 hours and 24 hours afterward, the cells were fixed with 4% paraformaldehyde, staining with caspase 3 and Tunel assay were performed, and presence or absence of apoptosis was analyzed. Observation was performed with a fluorescence microscope (BZ-9000) of Keyence, and positive images for each concentration were quantitatively observed (FIGS. 2 to 5).
Further, in the same manner as that of Example 1, the chondrosarcoma-derived cell line was subjected to caspase 3 staining, and presence or absence of apoptosis was analyzed (FIGS. 46 and 47). As a result, it was successfully observed that the caspase 3-positive ratio increased in the cells added with zaltoprofen at a concentration of 200 μM, troglitazone at a concentration of 100 μM, or pioglitazone at a concentration of 200 μM, compared with the control.

[12] = test system: PPARγ; assay: PPARγ immunostaining of GCT cultured cells; assay type: cell-based, human; details: case 1; 10, 50, 100, and 200 μM; 24 hours
Experimental: The GCT cultured cells of the aforementioned case 1 were cultured on chamber cover slide glass, and 24 hours thereafter, zaltoprofen was added at various concentrations (10, 50, 100, and 200 μM). After 24 hours, the cells were fixed with 4% paraformaldehyde, and staining of PPARγ was performed. Observation was performed with a fluorescence microscope (BZ-9000) of Keyence, and positive images for each concentration were quantitatively observed (FIGS. 6 and 7).

[13] = test system: caspase 3; assay: Caspase 3 staining of cultured cells of pigmented villonodular synovitis; assay type: cell-based, human; details: 400 μM, compared with control
Experimental: as §3

[14] = test system: pigmented villonodular synovitis; assay: MRI and symptom evaluation of patients with recurrence of pigmented villonodular synovitis in the right knee administered with zaltoprofen; assay type: in vivo, human; details: person, 3 tablets per day
Experimental: as §7

[15] = test system: cultured cells of pigmented villonodular synovitis; assay: Tunel assay of cultured cells of pigmented villonodular synovitis; assay type: cell-based, human; details: 400 μM, compared with control
Experimental: as §3

[16] = test system: GCT cultured cells; assay: Tunel assay of GCT cultured cells; assay type: cell-based, human; details: case 1; 100 and 200 μM; 8 hours and 24 hours
Experimental: as §8

[17] = test system: caspase 3; assay: Caspase 3 staining of operational excision sample of GCT patient administered with zaltoprofen; assay type: in vivo, human; details: 3 tablets per day (80 mg) for about 28 days
Experimental: (§9) An operational excision sample of a person who had been administered with 3 tablets per day of the zaltoprofen tablets, Soleton Tablet 80 (generic name: zaltoprofen, 80 mg, Nippon Chemiphar) for about 28 days for pain due to the tumor, and then subjected to the operation, and an operational excision sample of a patient with osteoclastoma not administered with zaltoprofen as a control were subjected to caspase 3 staining and Tunel assay, and analyzed for the presence or absence of apoptosis. Observation was performed with a fluorescence microscope (BZ-9000) produced by Keyence (FIG. 10). As a result, almost no Tunel-positive cells and caspase 3-positive cells were observed among the cells derived from the GCT patient not administered with zaltoprofen, whilst Tunel-positive cells and caspase 3-positive cells were observed among the cells derived from the patient administered with zaltoprofen.

[18] = test system: osteoclastoma (GCT); assay: Tunel assay of operational excision sample of GCT patient administered with zaltoprofen; assay type: in vivo, human; details: 3 tablets per day (80 mg) for about 28 days
Experimental: as §9

[19] = test system: PPARγ; assay: PPARγ immunostaining of chondrosarcoma-derived cell line; assay type: cell-based; details: 200 μM zaltoprofen
[20] = test system: chondrosarcoma-derived cell line (H-EMC-SS); assay: Cell proliferation of chondrosarcoma-derived cell line, CCK-8; assay type: cell-based; details: various concentrations
[21] = test system: GCT cultured cells; assay: Fat cell differentiation of GCT cultured cells, HCS LipidTOX Green Neutral Lipid Stain; assay type: cell-based, human; details: case 1; 10, 50, and 100 μM; fat cell differentiation-inducing medium 7 to 14 days
Experimental: as §4

[22] = test system: PPARγ; assay: PPARγ immunostaining of cells derived from pigmented villonodular synovitis; assay type: cell-based, human; details: 400 μM
[23] = test system: caspase 3; assay: Caspase 3 staining of GCT cultured cells; assay type: cell-based, human; details: case 1; 100 and 200 μM; 8 hours and 24 hours
Experimental: as §8

[24] = test system: PPARγ; assay: Effect of PPARγ siRNA on GCT cultured cells after addition of drug, CCK-8; assay type: cell-based, human; details: 200 μM; 72 hours; GCT cultured cells case 1, case 2
Experimental: The cells (case 1, case 2) were cultured on a 96-well culture plate, allowed to react with PPARγ siRNA, negative control siRNA, or only with the transfection reagents (Thermo Scientific DharmaFECT, Thermo Scientific) for 48 hours, and further cultured in a usual culture medium for 48 hours. Then, 200 μM of zaltoprofen or 60 μM of troglitazone was added to the cells, 72 hours thereafter, color development was performed with Cell Counting Kit-8 (CCK-8, Dojindo), and 3 hours thereafter, absorbance was measured at 450 nm (FIGS. 14 and 15).

[25] = test system: PPARγ; assay: PPARγ staining of operational excision sample of GCT patient administered with zaltoprofen; assay type: in vivo, human; details: 3 tablets per day (80 mg) for about 28 days
Experimental: as §6

O=C(O)Cc1ccccc1Nc1c(Cl)cccc1Cl [diclofenac]
cell proliferation (absorbance at 450 nm) ([1]; various concentrations): suppressed in a non-steroidal anti-inflammatory agent concentration-dependent manner

CC(C(=O)O)c1ccc2c(c1)CC(=O)c1ccccc1S2 (stereo not drawn) [zaltoprofen]
caspase 3-positive ratio [2]: increased
positive images obtained with HCS LipidTOX Green Neutral Lipid Stain (differentiation into fat cells) [3]: increased
expression of PPARγ (PPARγ-positive images) [4]: expression of PPARγ was successfully observed
fat cell differentiation [5]: fat cell differentiation was observed
Tunel-positive ratio [6]: increased
MRI image of the pelvic part (arrows) ([7]; after four months of administration): tumor necrosis region
MRI image of the pelvic part (arrows) ([7]; after two months of administration): tumor necrosis region
cell proliferation (absorbance) [8]: suppressed in a zaltoprofen or troglitazone concentration-dependent manner
positive images obtained with HCS LipidTOX Green Neutral Lipid Stain (differentiation into fat cells) [9]: increased
cell proliferation (absorbance) [10]: suppressed in a zaltoprofen or troglitazone concentration-dependent manner
caspase 3-positive ratio [11]: increased
expression of PPARγ (PPARγ-positive cells) [12]: increased in a zaltoprofen concentration-dependent manner
cell proliferation (absorbance at 450 nm) ([1]; 5, 10, 50, 100, and 200 μM, 24 hours): concentration-dependent suppression of the cell proliferation
caspase 3-positive ratio [13]: increased
MRI imaging effect ([14]; after three months): attenuation of the MRI imaging effect
tumor size evaluated by MRI ([14]; after two months): shrinkage of tumor
Tunel-positive ratio [15]: increased
Tunel-positive ratio [16]: concentration and administration time-dependent increases
caspase 3-positive cells [17]: observed
Tunel-positive cells [18]: observed
expression of PPARγ (PPARγ-positive images) [19]: expression of PPARγ was successfully observed
cell proliferation (absorbance) [20]: suppressed in a troglitazone, pioglitazone, or zaltoprofen concentration-dependent manner
positive images obtained with HCS LipidTOX Green Neutral Lipid Stain (differentiation into fat cells) [21]: increased in a zaltoprofen concentration-dependent manner
expression of PPARγ (PPARγ-positive images) [22]: expression of PPARγ was successfully observed
caspase 3-positive ratio [23]: concentration and administration time-dependent increases
effect of the drug on cell proliferation in the PPARγ siRNA addition group [24]: significantly suppressed
PPARγ-expressing cells [25]: PPARγ-expressing cells were observed

CC(=O)Nc1ccc(O)cc1 [acetaminophen]
cell proliferation (absorbance at 450 nm) ([1]; various concentrations): suppressed in a non-steroidal anti-inflammatory agent concentration-dependent manner

COc1ccc2c(c1)c(CC(=O)O)c(C)n2C(=O)c1ccc(Cl)cc1 [indomethacin]
cell proliferation (absorbance at 450 nm) ([1]; various concentrations): suppressed in a non-steroidal anti-inflammatory agent concentration-dependent manner
